Data reported in the supplement of paper PMC13380429.

Tests used:
Conditions in all cases: 72 h
[1] = system: Calu-3; experiment: relative viability EC50 (midpoint between 100% and the lowest measured viability); higher = less toxic
[2] = system: Vero E6; experiment: as above
[3] = system: U2OS; experiment: as above
[4] = system: HepG2; experiment: as above
[5] = system: Caco-2; experiment: as above
[6] = system: Calu-3; experiment: drug sensitivity score (DSS) for viability; higher = more toxic; extreme values may be limits of the assay
[7] = system: Vero E6; experiment: as above
[8] = system: U2OS; experiment: as above
[9] = system: HepG2; experiment: as above
[10] = system: Caco-2; experiment: as above
[11] = system: Calu-3; experiment: cell viability relative to DMSO; higher = less toxic
[12] = system: Vero E6; experiment: as above
[13] = system: U2OS; experiment: as above
[14] = system: HepG2; experiment: as above
[15] = system: Caco-2; experiment: as above

SMILES	relative viability EC50 [1] [µM]	relative viability EC50 [2] [µM]	relative viability EC50 [3] [µM]	relative viability EC50 [4] [µM]	relative viability EC50 [5] [µM]	drug sensitivity score [6]	drug sensitivity score [7]	drug sensitivity score [8]	drug sensitivity score [9]	drug sensitivity score [10]	cell viability ([11]; 1 nM) [%]	cell viability ([11]; 10 nM) [%]	cell viability ([11]; 100 nM) [%]	cell viability ([11]; 1000 nM) [%]	cell viability ([11]; 10000 nM) [%]	cell viability ([12]; 1 nM) [%]	cell viability ([12]; 10 nM) [%]	cell viability ([12]; 100 nM) [%]	cell viability ([12]; 1000 nM) [%]	cell viability ([12]; 10000 nM) [%]	cell viability ([13]; 1 nM) [%]	cell viability ([13]; 10 nM) [%]	cell viability ([13]; 100 nM) [%]	cell viability ([13]; 1000 nM) [%]	cell viability ([13]; 10000 nM) [%]	cell viability ([14]; 1 nM) [%]	cell viability ([14]; 10 nM) [%]	cell viability ([14]; 100 nM) [%]	cell viability ([14]; 1000 nM) [%]	cell viability ([14]; 10000 nM) [%]	cell viability ([15]; 1 nM) [%]	cell viability ([15]; 10 nM) [%]	cell viability ([15]; 100 nM) [%]	cell viability ([15]; 1000 nM) [%]	cell viability ([15]; 10000 nM) [%]
CC[C@H](C)n1cc(C)c2c(C(=O)NCc3c(C)cc(C)[nH]c3=O)cc(-c3ccc(N4CCNCC4)nc3)cc21	> 10	> 10	> 10	> 10	> 10	0	0	0	0.1	0	96.3	102	107	102	90.9	92.3	99.2	91.6	88.2	98.7	97.4	98.2	98.8	101	91.7	98.7	97.7	99.1	99	87.9	93.9	101	102	102	95.1
O=C(NC1CCNCC1)c1n[nH]cc1NC(=O)c1c(Cl)cccc1Cl [AT-7519]	1.53	> 10	3.19	0.509	3.46	5.9	0	5.2	14	3.3	100	99	95.9	83.9	37.5	99.6	102	102	99.6	96.6	103	97.6	100	100	7	111	99.4	108	22.5	9.6	91.4	93.2	94.2	104	33.5
CN(C)c1ccc(C(=C2C=CC(=[N+](C)C)C=C2)c2ccc(N(C)C)cc2)cc1 [crystal-violet]	0.715	0.383	0.477	0.432	0.295	13.3	16.9	15.6	15.7	16.9	100	94	104	31.5	2.1	96	89.5	100	6.8	-0.4	96.6	100	96.4	17.4	-0.4	112	89.9	111	10.7	3.6	86.3	94.9	80.9	21.4	4.4
N=C(N)S/C=C\C(=O)O [ZAPA]	> 10	> 10	> 10	> 10	> 10	0	0	0	0	0	83	103	101	103	95.5	98.3	97.1	94.8	95	106	92.8	97.7	95.6	100	101	96	95.5	104	89.3	102	91.1	96	91.3	104	106
Cc1cc(C)c(CNC(=O)c2cc(-c3ccc(N4CCN(C)CC4)nc3)cc3c2c(C)cn3C(C)C)c(=O)[nH]1 [GSK503]	> 10	> 10	> 10	> 10	> 10	0	0	0	0.4	0	88.3	85.3	92.9	109	104	101	104	105	98.6	102	104	98.6	104	101	102	92.6	112	99.7	94.4	87.2	98.8	104	93.7	105	102
Nc1nc(=O)c2sc(=O)n([C@@H]3O[C@H](CO)[C@@H](O)[C@H]3O)c2[nH]1	> 10	> 10	> 10	> 10	> 10	0	0	0	0	0	94.2	110	97	95.3	97.5	94.9	98.7	97	95.8	102	97.2	93.6	95.4	102	102	91.6	99.5	107	107	97.2	95.1	90.6	92.7	99.6	103
O=C(NCCCN1CCOCC1)c1ccc(Cl)cc1 [eprobemide]	> 10	> 10	> 10	> 10	> 10	0	0	0	0.5	0	105	87.6	105	92.2	103	92.1	96.3	100	99.1	99.6	102	92.7	103	97.4	99.5	108	107	88.6	110	76.6	106	92.3	108	103	98.8
